From US20120220581A1, “IMIDAZO[1,2-b]PYRIDAZINE DERIVATIVES AND THEIR USE AS PDE10 INHIBITORS” (Janssen-Cilag, S.A., priority 2009, published 2012)
Where two headings read alike, the source gives them in different places.

Experiments:
[1] = molecular target: T1, Rat recombinant PDE10A (rPDE10A2) (Rattus norvegicus, UniProt Q9QYJ6); experiment: In vitro assay PDE10A (SPA, 3H-cAMP); format: biochemical
T1 construct: inferred from the Ni metal chelate purification; made in house; host or cells: Sf9 insect cells (baculovirus)
T1 sequence (Q9QYJ6 1-794): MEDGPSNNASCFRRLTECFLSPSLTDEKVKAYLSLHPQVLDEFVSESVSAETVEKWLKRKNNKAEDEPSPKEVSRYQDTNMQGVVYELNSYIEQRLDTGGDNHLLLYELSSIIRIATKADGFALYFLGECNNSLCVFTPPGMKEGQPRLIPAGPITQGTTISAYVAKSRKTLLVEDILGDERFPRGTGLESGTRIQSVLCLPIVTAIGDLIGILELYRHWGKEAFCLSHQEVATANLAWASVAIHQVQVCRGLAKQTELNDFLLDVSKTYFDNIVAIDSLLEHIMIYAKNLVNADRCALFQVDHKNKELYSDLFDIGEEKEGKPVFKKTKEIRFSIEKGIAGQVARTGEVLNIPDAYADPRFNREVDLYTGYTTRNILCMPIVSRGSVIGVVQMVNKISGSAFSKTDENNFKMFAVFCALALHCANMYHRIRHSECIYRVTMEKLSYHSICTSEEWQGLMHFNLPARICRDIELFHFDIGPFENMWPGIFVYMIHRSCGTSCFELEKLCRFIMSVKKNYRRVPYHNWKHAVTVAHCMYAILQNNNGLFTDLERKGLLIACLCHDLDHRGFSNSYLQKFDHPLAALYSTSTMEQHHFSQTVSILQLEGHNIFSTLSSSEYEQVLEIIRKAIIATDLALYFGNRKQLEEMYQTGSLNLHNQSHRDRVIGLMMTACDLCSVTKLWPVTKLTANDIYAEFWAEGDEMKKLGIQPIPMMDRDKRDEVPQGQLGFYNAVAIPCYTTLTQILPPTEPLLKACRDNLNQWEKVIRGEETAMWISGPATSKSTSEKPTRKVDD
How it was run: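 Scintillation proximity read-out (cpm) of 3H-cAMP hydrolysis after 60 min at room temperature, with enzyme-free blanks and 1% DMSO controls. Enzyme was Sf9-expressed, Ni-sepharose-purified rat rPDE10A2; substrate 60 nM cAMP with tracer, buffer Tris pH 7.8 containing MgCl2 and EGTA.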

PDE4D3 = PDE4D3 (Homo sapiens, UniProt Q08499); experiment: In vitro PDE selectivity assay (SPA), PDE4D3; format: biochemical; conditions: hPDE4D3; read-out: PDE 4D3 (expressed as pIC50) (converted)
Description: (§1) Rat recombinant PDE10A (rPDE10A2) was expressed in Sf9 cells using a recombinant rPDE10A baculovirus construct. Cells were harvested after 48 h of infection and the rPDE10A protein was purified by metal chelate chromatography on Ni-sepharose 6FF. Tested compounds were dissolved and diluted in 100% DMSO to a concentration 100 fold of the final concentration in the assay. Compound dilutions (0.4 μl) were added in 384 well plates to 20 μl of incubation buffer (50 mM Tris pH 7.8, 8.3 mM MgCl2, 1.7 mM EGTA). 10 μl of rPDE10A enzyme in incubation buffer was added and the reaction was started by addition of 10 μl substrate to a final concentration of 60 nM cAMP and 0.008 μCi ^3H-cAMP. The reaction was incubated for 60 minutes at room temperature. After incubation, the reaction was stopped with 20 μl of stop solution consisting of 17.8 mg/ml PDE SPA (scintillation proximity assay) beads. After sedimentation of the beads during 30 minutes the radioactivity was measured in a Perkin Elmer Topcount scintillation counter and results were expressed as cpm. For blanc values the enzyme was omitted from the reaction and replaced by incubation buffer. Control values were obtained by addition of a final concentration of 1% DMSO instead of compound. The same assay principle is applied for the measurement of the affinity of the compound for other members of the PDE family with appropriate modifications in incubation buffer, substrate concentration, incubation time and stop solution. An overview of the different protocols is presented in table A. A best fit curve is fitted by a minimum sum of squares method to the plot of % of control value substracted with blanc value versus compound concentration and the half maximal inhibitory concentration (IC50) value is derived from this curve.
(§2) The compounds of the invention are generally selective for PDE10 compared to other PDEs and there are a few that also have affinity for PDE1B1, 4D3 and 5A3.

PDE5A3 = PDE5A3 (Homo sapiens, UniProt O76074); experiment: In vitro PDE selectivity assay (SPA), PDE5A3; format: biochemical; conditions: hPDE5A3; read-out: PDE 5A3 (expressed as pIC50) (converted)
Description: as §1, §2

[2] = molecular target: other members of the PDE family (Homo sapiens, UniProt O00408); experiment: In vitro PDE selectivity assay (SPA), other members of the PDE family (protocols in Table A); format: biochemical; conditions: hPDE2A; read-out: PDE 2A (expressed as pIC50) (converted)
How it was run: (§3)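 Inhibition of each PDE isoform was measured by scintillation proximity assay with ³H-cyclic nucleotide substrate, using incubation buffer, substrate concentration, incubation time and stop solution adapted per isoform. Compounds were tested in dose-response against 1% DMSO controls and enzyme-free blanks. IC50 came from a least-squares fit of blank-subtracted % of control versus concentration.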

[3] = molecular target: other members of the PDE family (Homo sapiens, UniProt O76083); experiment: as above; format: biochemical; conditions: hPDE9A; read-out: PDE 9A (expressed as pIC50) (converted)
How it was run: as §3

[4] = molecular target: other members of the PDE family (Homo sapiens, UniProt Q13946); experiment: as above; format: biochemical; conditions: hPDE7A1; read-out: PDE 7A (expressed as pIC50) (converted)
How it was run: as §3

[5] = molecular target: other members of the PDE family (Homo sapiens, UniProt Q14432); experiment: as above; format: biochemical; conditions: hPDE3A; read-out: PDE 3A (expressed as pIC50) (converted)
How it was run: as §3

[6] = molecular target: other members of the PDE family (Homo sapiens, UniProt Q9HCR9); experiment: as above; format: biochemical; conditions: hPDE11A4; read-out: PDE 11A4 (expressed as pIC50) (converted)
How it was run: as §3

[7] = tested on: apomorphine-induced stereotypy in rats; experiment: Apomorphine-induced stereotypy in rats (APO); format: in vivo; conditions: Rattus norvegicus; dose at which 50% of the tested animals show the effect; ≧: active in 30% of the animals at the indicated dose; ≦: active in 60%
Description: Apomorphine (1.0 mg/kg, i.v.)-induced stereotypy (compulsive sniffing, licking, chewing) was scored every 5 min over the first hour after injection of apomorphine, following a 1 hour interval pre-treatment with the test compound. The score system was: (3) pronounced, (2) moderate, (1) slight, and (0) absent.

PDE10 = molecular target: T2, PDE10 (Rattus norvegicus, UniProt Q9QYJ6); experiment: PDE10 occupancy ([3H]-MP-10, striatum); format: in vivo; conditions: for ED50 / receptor occupancy at 10 mg/kg: rat, sc; for ED50: dose response, subcutaneous administration, read-out: PDE10 in vivo occupancy ED50 sc; for receptor occupancy at 10 mg/kg: single dose 10 mg/kg, subcutaneous, read-out: SD sc % occupancy at 10 mg/kg
T2 construct: from tissue; host or cells: rat brain sections, striatum (in vivo dosing, ex vivo autoradiography)
T2 sequence (Q9QYJ6 1-794): T1 sequence (Q9QYJ6 1-794)
How it was run: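 Male Wistar rats (200 g) dosed s.c. or p.o.; occupancy measured 1 h post-dose. [^3H]-MP-10 (10 μCi/animal) given i.v. 30 min before sacrifice.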

[8] = Table 4 in vitro selectivity, read-out: PDE 10A2 (expressed as pIC50) (converted)
[9] = pIC50 corresponds to the −log IC50 expressed in mol/L, read-out: PDE10A2 pIC50 (converted)

Sequence of other members of the PDE family (Homo sapiens, UniProt O76083) (O76083 whole entry): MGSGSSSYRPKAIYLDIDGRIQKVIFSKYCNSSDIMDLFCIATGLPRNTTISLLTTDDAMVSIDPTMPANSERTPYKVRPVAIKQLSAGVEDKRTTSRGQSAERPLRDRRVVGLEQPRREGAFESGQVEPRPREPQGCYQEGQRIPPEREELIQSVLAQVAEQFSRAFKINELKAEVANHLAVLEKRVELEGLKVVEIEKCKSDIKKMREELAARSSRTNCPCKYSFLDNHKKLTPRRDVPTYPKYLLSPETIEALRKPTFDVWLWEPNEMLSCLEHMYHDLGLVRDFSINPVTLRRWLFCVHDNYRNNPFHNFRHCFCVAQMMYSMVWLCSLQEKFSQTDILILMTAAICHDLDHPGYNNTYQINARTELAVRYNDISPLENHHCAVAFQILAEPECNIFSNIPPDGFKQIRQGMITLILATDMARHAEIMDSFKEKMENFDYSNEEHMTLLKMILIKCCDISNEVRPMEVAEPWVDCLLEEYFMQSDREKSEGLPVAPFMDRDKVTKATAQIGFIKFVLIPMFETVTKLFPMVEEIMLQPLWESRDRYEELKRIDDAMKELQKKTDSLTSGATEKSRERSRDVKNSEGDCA
Sequence of PDE4D3 (Q08499 1-673 isoform Q08499-2): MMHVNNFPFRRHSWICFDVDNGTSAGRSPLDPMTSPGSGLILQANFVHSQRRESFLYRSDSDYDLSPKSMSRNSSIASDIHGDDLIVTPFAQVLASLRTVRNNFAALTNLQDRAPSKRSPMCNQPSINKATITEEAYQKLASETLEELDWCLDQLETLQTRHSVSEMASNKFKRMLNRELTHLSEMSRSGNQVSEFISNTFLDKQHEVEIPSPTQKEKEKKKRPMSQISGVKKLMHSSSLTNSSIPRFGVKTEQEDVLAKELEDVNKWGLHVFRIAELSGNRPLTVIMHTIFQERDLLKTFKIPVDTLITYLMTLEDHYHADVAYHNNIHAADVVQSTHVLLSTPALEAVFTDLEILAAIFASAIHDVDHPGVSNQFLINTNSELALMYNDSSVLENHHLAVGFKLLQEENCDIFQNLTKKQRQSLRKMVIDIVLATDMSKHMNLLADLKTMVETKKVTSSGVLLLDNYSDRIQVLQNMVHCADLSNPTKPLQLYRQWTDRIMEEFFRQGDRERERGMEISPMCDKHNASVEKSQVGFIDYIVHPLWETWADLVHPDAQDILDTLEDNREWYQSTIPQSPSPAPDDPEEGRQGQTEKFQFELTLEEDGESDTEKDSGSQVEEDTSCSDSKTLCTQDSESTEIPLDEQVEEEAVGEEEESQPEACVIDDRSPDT
Sequence of other members of the PDE family (Homo sapiens, UniProt Q14432) (Q14432 whole entry): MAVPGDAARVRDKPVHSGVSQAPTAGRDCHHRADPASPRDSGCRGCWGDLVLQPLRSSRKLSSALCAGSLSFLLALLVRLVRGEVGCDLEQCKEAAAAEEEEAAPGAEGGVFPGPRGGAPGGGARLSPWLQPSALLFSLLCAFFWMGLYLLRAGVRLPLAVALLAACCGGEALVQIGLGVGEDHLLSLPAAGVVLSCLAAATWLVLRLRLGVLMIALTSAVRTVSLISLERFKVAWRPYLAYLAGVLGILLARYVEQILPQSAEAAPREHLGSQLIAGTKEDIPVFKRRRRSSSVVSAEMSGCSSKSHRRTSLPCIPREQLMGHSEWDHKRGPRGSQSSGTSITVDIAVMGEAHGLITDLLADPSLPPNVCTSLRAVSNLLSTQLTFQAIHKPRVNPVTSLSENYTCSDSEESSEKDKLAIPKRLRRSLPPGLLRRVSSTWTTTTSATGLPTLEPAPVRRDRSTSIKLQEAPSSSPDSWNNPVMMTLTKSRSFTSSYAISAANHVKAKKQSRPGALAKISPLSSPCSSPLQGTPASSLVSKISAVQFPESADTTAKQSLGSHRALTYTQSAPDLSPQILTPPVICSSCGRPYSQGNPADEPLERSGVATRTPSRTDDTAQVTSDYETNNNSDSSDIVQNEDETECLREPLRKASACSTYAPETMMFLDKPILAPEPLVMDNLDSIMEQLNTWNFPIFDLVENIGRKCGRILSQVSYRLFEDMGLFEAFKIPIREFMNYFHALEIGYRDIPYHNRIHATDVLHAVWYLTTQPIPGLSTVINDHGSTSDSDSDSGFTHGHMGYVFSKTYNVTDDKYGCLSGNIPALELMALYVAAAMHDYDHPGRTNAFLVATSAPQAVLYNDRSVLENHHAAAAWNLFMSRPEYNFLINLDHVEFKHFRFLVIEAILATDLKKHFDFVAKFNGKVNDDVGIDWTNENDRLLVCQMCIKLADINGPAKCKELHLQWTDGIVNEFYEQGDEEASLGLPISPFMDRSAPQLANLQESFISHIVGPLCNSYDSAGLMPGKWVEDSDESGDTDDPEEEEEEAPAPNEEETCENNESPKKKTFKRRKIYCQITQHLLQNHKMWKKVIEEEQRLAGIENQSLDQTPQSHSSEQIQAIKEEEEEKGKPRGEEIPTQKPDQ
Sequence of other members of the PDE family (Homo sapiens, UniProt Q9HCR9) (Q9HCR9 whole entry): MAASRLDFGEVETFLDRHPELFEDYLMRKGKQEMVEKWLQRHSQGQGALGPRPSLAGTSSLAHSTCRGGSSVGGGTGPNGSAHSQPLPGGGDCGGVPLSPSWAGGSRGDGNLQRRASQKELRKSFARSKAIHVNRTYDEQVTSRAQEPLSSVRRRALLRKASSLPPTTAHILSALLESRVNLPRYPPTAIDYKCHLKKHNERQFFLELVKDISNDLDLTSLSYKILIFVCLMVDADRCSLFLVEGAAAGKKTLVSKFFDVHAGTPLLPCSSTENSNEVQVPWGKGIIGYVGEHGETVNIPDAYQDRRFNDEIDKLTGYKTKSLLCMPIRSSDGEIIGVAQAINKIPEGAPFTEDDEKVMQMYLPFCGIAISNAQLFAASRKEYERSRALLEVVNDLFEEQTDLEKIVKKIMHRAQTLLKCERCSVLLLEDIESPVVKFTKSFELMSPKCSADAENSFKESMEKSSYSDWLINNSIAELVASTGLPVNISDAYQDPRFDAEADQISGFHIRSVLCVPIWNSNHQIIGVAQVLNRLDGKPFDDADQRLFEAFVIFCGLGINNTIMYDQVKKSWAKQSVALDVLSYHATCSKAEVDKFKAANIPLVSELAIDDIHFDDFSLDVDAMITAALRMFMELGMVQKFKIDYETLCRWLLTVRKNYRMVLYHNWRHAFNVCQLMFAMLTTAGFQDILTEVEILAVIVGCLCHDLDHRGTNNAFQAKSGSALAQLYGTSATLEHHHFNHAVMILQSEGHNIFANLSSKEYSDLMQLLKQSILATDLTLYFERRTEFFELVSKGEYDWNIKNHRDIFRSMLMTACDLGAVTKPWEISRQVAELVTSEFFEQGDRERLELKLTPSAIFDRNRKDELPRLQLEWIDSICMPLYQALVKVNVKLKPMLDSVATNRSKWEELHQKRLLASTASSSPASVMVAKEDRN
Sequence of other members of the PDE family (Homo sapiens, UniProt O00408) (O00408 whole entry, canonical isoform): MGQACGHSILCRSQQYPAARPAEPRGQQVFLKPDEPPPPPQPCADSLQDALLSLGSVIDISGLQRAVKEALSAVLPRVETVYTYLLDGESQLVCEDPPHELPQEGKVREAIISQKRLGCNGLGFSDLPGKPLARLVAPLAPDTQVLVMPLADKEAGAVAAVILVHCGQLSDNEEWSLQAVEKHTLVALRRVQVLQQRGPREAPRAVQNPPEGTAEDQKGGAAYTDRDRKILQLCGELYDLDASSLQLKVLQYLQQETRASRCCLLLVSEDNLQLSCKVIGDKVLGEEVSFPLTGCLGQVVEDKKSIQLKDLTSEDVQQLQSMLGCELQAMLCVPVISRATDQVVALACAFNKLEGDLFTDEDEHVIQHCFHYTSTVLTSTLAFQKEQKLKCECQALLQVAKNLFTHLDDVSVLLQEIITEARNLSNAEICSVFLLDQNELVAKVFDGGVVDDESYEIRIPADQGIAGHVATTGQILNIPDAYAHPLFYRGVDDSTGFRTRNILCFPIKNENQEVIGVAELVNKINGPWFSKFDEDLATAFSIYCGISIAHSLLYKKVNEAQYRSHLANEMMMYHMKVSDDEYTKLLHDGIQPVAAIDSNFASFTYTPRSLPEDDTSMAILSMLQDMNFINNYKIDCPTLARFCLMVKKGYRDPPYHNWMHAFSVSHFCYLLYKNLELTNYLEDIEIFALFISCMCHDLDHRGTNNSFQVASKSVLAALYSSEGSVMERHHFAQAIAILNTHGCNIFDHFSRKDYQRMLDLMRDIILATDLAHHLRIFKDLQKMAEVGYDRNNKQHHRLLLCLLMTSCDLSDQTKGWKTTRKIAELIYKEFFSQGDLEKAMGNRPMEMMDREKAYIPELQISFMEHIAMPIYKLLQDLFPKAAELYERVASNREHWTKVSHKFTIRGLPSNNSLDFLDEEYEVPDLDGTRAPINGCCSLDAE
Sequence of other members of the PDE family (Homo sapiens, UniProt Q13946) (Q13946 whole entry): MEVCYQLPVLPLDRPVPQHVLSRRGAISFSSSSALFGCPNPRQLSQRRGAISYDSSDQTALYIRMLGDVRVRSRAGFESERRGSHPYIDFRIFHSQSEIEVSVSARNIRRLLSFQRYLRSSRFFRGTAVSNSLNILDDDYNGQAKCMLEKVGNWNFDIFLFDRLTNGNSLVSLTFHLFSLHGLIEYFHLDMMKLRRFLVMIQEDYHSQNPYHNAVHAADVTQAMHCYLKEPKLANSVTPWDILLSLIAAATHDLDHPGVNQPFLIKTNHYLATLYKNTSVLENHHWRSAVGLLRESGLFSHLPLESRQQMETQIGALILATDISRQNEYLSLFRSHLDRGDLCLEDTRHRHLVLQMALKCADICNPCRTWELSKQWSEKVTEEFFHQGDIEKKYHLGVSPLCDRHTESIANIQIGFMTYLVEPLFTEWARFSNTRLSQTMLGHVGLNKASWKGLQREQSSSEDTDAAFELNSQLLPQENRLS

| SMILES | IC50 [1, 8] | IC50 [1, 9] | IC50 (PDE4D3) | IC50 (PDE5A3) | IC50 [2] | IC50 [3] | IC50 [4] | IC50 [5] | IC50 [6] | ED50 [7] | % occupancy at the highest dose tested (PDE10; dose response sc, data between brackets) | ED50 (PDE10) | receptor occupancy at 10 mg/kg (PDE10) |
| --- | --- | --- | --- | --- | --- | --- | --- | --- | --- | --- | --- | --- | --- |
| Cc1nc2c(N3CCOCC3)ccnn2c1-c1ccc(N2CCNCC2)nc1 [compound 30, 2-methyl-8-(4-morpholinyl)-3-[6-(1-piperazinyl)-3-pyridinyl]-imidazo[1,2-b]pyridazine] | 0.123 µM | 0.123 µM | > 10 µM | > 10 µM | > 10 µM | > 10 µM | > 10 µM | > 10 µM | > 10 µM | 7.1 mg/kg | 6% | > 10 mg/kg | – |
| Cc1nc2c(-c3ccncc3)ccnn2c1-c1cnn(CC(C)C)c1 [compound 124, 2-methyl-3-[1-(2-methylpropyl)-1H-pyrazol-4-yl]-8-(4-pyridinyl)-imidazo[1,2-b]pyridazine] | 0.0224 µM | 0.0224 µM | 7.41 µM | 1.95 µM | 8.71 µM | > 10 µM | 5.37 µM | 6.92 µM | 5.37 µM | 1.2 mg/kg | – | 3 mg/kg | – |
| CO[C@@H](C)Cn1cc(-c2c(C)nc3c(N4CCOCC4)ccnn23)cn1 [compound 131, 3-[1-[(2S)-2-methoxypropyl]-1H-pyrazol-4-yl]-2-methyl-8-(4-morpholinyl)-imidazo[1,2-b]pyridazine] | 0.0347 µM | 0.0347 µM | > 10 µM | 8.51 µM | > 10 µM | > 10 µM | > 10 µM | > 10 µM | > 10 µM | 3.1 mg/kg | – | – | 59% |
| COC(C)(C)Cn1cc(-c2c(C)nc3c(N4CCOCC4)ccnn23)cn1 [compound 37, 3-[1-(2-methoxy-2-methylpropyl)-1H-pyrazol-4-yl]-2-methyl-8-(4-morpholinyl)-imidazo[1,2-b]pyridazine] | 0.0501 µM | 0.0501 µM | 30.9 µM | 6.03 µM | 53.7 µM | > 100 µM | 45.7 µM | 11 µM | 39.8 µM | 1.5 mg/kg | – | 2.2 mg/kg | 67% |
| CC(C)Cn1cc(-c2c(C3CC3)nc3c(-c4ccncc4)ccnn23)cn1 [compound 148, 2-cyclopropyl-3-[1-(2-methylpropyl)-1H-pyrazol-4-yl]-8-(4-pyridinyl)-imidazo[1,2-b]pyridazine] | 0.0251 µM | 0.0251 µM | 2.57 µM | 1.23 µM | 4.37 µM | > 10 µM | 2.88 µM | 3.16 µM | 1.91 µM | 5 mg/kg | – | – | 66% |
| CCc1ccc(-c2c(C)nc3c(N4CCOCC4)ccnn23)cn1 [compound 28, 3-(6-ethyl-3-pyridinyl)-2-methyl-8-(4-morpholinyl)-imidazo[1,2-b]pyridazine] | 0.0832 µM | 0.0832 µM | 13.2 µM | 13.8 µM | 26.9 µM | > 100 µM | 25.7 µM | 30.2 µM | 30.2 µM | 1.2 mg/kg | – | 1.1 mg/kg | – |
| COC(C)(C)Cc1ccc(-c2c(C)nc3c(N4CCOCC4)ccnn23)cn1 [compound 3, 3-[6-(2-methoxy-2-methylpropyl)-3-pyridinyl]-2-methyl-8-(4-morpholinyl)-imidazo[1,2-b]pyridazine] | 0.0263 µM | 0.0263 µM | > 10 µM | 7.94 µM | > 10 µM | > 10 µM | > 10 µM | > 10 µM | > 10 µM | 0.8 mg/kg | – | 2 mg/kg | – |
| Cc1nc2c(N3CCOCC3)ccnn2c1-c1cnn(CC(C)C)c1 [compound 35, 2-methyl-3-[1-(2-methylpropyl)-1H-pyrazol-4-yl]-8-(4-morpholinyl)-imidazo[1,2-b]pyridazine] | 0.038 µM | 0.038 µM | > 10 µM | > 10 µM | > 10 µM | > 10 µM | > 10 µM | 7.41 µM | > 10 µM | 5 mg/kg | – | – | 67% |
| CCc1nc2c(N3CCOCC3)ccnn2c1-c1cnn(CCOC)c1 [compound 127, 2-ethyl-3-[1-(2-methoxyethyl)-1H-pyrazol-4-yl]-8-(4-morpholinyl)-imidazo[1,2-b]pyridazine] | 0.112 µM | 0.112 µM | > 10 µM | 4.68 µM | > 10 µM | > 10 µM | > 10 µM | > 10 µM | > 10 µM | 2 mg/kg | – | – | 4% |
| COCCn1cc(-c2c(C)nc3c(-c4ccncc4)cc(Cl)nn23)cn1 [compound 147, 6-chloro-3-[1-(2-methoxyethyl)-1H-pyrazol-4-yl]-2-methyl-8-(4-pyridinyl)-imidazo[1,2-b]pyridazine] | 0.0676 µM | 0.0676 µM | 3.8 µM | 1.17 µM | > 10 µM | > 10 µM | 3.55 µM | > 10 µM | 3.8 µM | 5 mg/kg | – | – | 22% |
